From the NIST ThermoML archive (doi:10.1016/j.jct.2016.07.040)

Conditions: Crystal; for vapor or sublimation pressure: Calculated from knudsen effusion weight loss

[Np+4].[O-2].[O-2] [neptunium(IV) oxide]
Conditions | mass density [kg/m3]
295 K, 101.33 kPa, X-ray diffraction | 11140

Conditions | vapor or sublimation pressure [kPa]
2054.9 K | 3.295e-05
2056.2 K | 3.366e-05
2057.9 K | 3.51e-05
2060.1 K | 3.662e-05
2062.3 K | 3.796e-05
2064.8 K | 3.874e-05
2067.1 K | 4.025e-05
2069.1 K | 4.246e-05
2071.4 K | 4.393e-05
2073.9 K | 4.623e-05
2076.6 K | 4.712e-05
2078.6 K | 4.956e-05
2081.3 K | 5.123e-05
2083.9 K | 5.383e-05
2086.1 K | 5.495e-05
2088.4 K | 5.784e-05
2090.9 K | 5.955e-05
2093.2 K | 6.187e-05
2095.7 K | 6.433e-05
2098.6 K | 6.692e-05
2100.8 K | 6.877e-05
2103.4 K | 7.176e-05
2105.9 K | 7.462e-05
2108.1 K | 7.729e-05
2111.2 K | 8.054e-05
2113.1 K | 8.434e-05
2115.9 K | 8.748e-05
2118.1 K | 9.035e-05
2120.3 K | 9.314e-05
2122.9 K | 9.644e-05
2125.2 K | 9.94e-05
2127.9 K | 0.0001045
2130.5 K | 0.0001097
2132.7 K | 0.0001123
2135.3 K | 0.0001157
2137.4 K | 0.0001217
2139.9 K | 0.0001239
2142.7 K | 0.0001288
2145.2 K | 0.0001332
2147.5 K | 0.0001386
2149.8 K | 0.0001358
2150.2 K | 0.0001442
2151.3 K | 0.0001375
2152.2 K | 0.0001394
2152.6 K | 0.0001498
2152.8 K | 0.0001433
2154.4 K | 0.0001447
2154.9 K | 0.0001542
2155.9 K | 0.0001583
2156 K | 0.0001482
2157.3 K | 0.0001517
2158.4 K | 0.0001543
2160.3 K | 0.0001598
2161.7 K | 0.0001597
2162.9 K | 0.0001642
2164.5 K | 0.0001713
2166.2 K | 0.0001748
2167.4 K | 0.000178
2168.5 K | 0.0001787
2170.6 K | 0.0001874
2172.1 K | 0.0001888
2173.8 K | 0.0001909
2175.3 K | 0.0001994
2176.6 K | 0.0002036
2178.6 K | 0.0002068
2179.8 K | 0.0002135
2181 K | 0.0002199
2183.2 K | 0.0002228
2184.5 K | 0.0002278
2186.2 K | 0.0002338
2187.7 K | 0.0002364
2189.2 K | 0.0002417
2191.4 K | 0.0002525
2193.1 K | 0.0002543
2194.3 K | 0.0002622
2196 K | 0.0002656
2197.8 K | 0.0002726
2199.7 K | 0.0002771
2200.8 K | 0.0002867
2202.4 K | 0.0002946
2204.7 K | 0.0002992
2206.6 K | 0.0003045
2207.4 K | 0.0003104
2209.3 K | 0.0003162
2211.2 K | 0.0003286
2212.7 K | 0.0003354
2214.4 K | 0.0003408
2216.4 K | 0.0003502
2218.1 K | 0.0003597
2218.9 K | 0.0003644
2220.7 K | 0.0003741
2222.9 K | 0.0003833
2224.6 K | 0.0003931
2225.9 K | 0.0004013
2227.7 K | 0.000407
2229.2 K | 0.0004206
2231 K | 0.0004254
2232.9 K | 0.0004344
2233.8 K | 0.0004466
2235.8 K | 0.0004515
2237.8 K | 0.0004628
2239.3 K | 0.0004711
2240.7 K | 0.0004792
2242.2 K | 0.0004974
2243.7 K | 0.0005095
2245.8 K | 0.0005148
2247.3 K | 0.0005247
2249.2 K | 0.00054
2250.6 K | 0.0005507
2252.1 K | 0.0005593
2254.2 K | 0.0005708
2255.6 K | 0.0005856
2257.4 K | 0.0005944
2258.3 K | 0.0006052
2258.7 K | 0.0006098
2259.2 K | 0.0006132
